Test results taken from PMC11240139, “Exploring the antitumor potential of novel quinoline derivatives via tubulin polymerization inhibition in breast cancer; design, synthesis and molecular docking” (RSC Advances, 2024).
“Also recorded” adds a separate entry of the source.

What was measured:
Type in all cases: cell-based
[1] = test system: SK-OV-3 (ovarian cancer); test: NCI-60 SRB cytotoxicity screen
[2] = test system: SF-268 (CNS cancer); test: NCI-60 SRB cytotoxicity screen
[3] = test system: UACC-257 (melanoma); test: NCI-60 SRB cytotoxicity screen
[4] = test system: MALME-3M (melanoma); test: NCI-60 SRB cytotoxicity screen
[5] = test system: K-562 (leukemia); test: NCI-60 SRB cytotoxicity screen
[6] = test system: β-tubulin mRNA in MDA-MB-231 cells; test: Tubulin expression assay (real-time PCR); conditions: MDA-MB-231, IC50 dose, 48 h, normalized to β-actin
Protocol: The cells were seeded in a six-well plate at a concentration of 3 × 10^5 cells per well. […] The cells were washed, collected and centrifuged at 2500 rpm for 15 min at 4 °C. The total RNA isolation kit (RNeasy extraction kit – QIAGEN) was used to isolate RNA according to the manufacturer's instructions.
Gene expression of β-tubulin was determined using iScript One-Step RT-PCR kit with SYBR Green (BIORAD) according to the manufacturer protocol. Primers sequences used for qPCR are illustrated in (Table 5). The genes expression was normalized to β-actin as the housekeeping gene. The protocol used was cDNA synthesis for 10 min at 50 °C, iScript Reverse transcriptase inactivation for 5 min at 95 °C and PCR cycling and detection (30 to 45 cycles): 10 s at 95 °C and 30 s at 55 °C to 60 °C.

[7] = test system: T-47D (breast cancer); test: NCI-60 SRB cytotoxicity screen
[8] = test system: UACC-62 (melanoma); test: NCI-60 SRB cytotoxicity screen
[9] = test system: BT-549 (breast cancer); test: NCI-60 SRB cytotoxicity screen
[10] = test system: SR (leukemia); test: NCI-60 SRB cytotoxicity screen
[11] = test system: NCI/ADR-RES (ovarian cancer); test: NCI-60 SRB cytotoxicity screen
[12] = test system: NCI-H522 (non-small cell lung cancer); test: NCI-60 SRB cytotoxicity screen
[13] = test system: COLO 205 (colon cancer); test: NCI-60 SRB cytotoxicity screen
[14] = test system: HCT-15 (colon cancer); test: NCI-60 SRB cytotoxicity screen
[15] = test system: SF-295 (CNS cancer); test: NCI-60 SRB cytotoxicity screen
[16] = test system: OVCAR-8 (ovarian cancer); test: NCI-60 SRB cytotoxicity screen
[17] = Homo sapiens, UACC-257, five-dose assay
[18] = Homo sapiens, five-dose assay, read-out: LC50 (the source's name)
[19] = Homo sapiens, single dose 10 μM, read-out: growth inhibition (GI%)
[20] = Homo sapiens, BT-549, five-dose assay
[21] = Homo sapiens, NCI-H522, five-dose assay
[22] = Homo sapiens, COLO 205, five-dose assay
[23] = Homo sapiens, HCT-15, five-dose assay
[24] = Homo sapiens, SF-295, five-dose assay

Work on `CCc1cccc2cc(-c3cc(-c4cc(OC)c(OC)c(OC)c4)[nH]c(=O)c3C#N)c(Cl)nc12` [Compound 4c, 4-(2-Chloro-8-ethylquinolin-3-yl)-2-oxo-6-(3,4,5-trimethoxyphenyl)-1,2-dihydropyridine-3-carbonitrile] yielded a GI50 ([1]; Homo sapiens, SK-OV-3, five-dose assay) of 26 µM, a CC50 ([1]; Homo sapiens, SK-OV-3, five-dose assay, read-out: LC50 (the source's name)) greater than 100 µM and an inhibition at 10 µM ([1]; Homo sapiens, SK-OV-3, single dose 10 μM, read-out: growth inhibition (GI%)) of 61.4%. For the same compound, the TGI ([1]; SK-OV-3, five-dose assay) was greater than 100 µM, the GI50 ([2]; Homo sapiens, SF-268, five-dose assay) was 13.8 µM and the CC50 ([2]; Homo sapiens, SF-268, five-dose assay, read-out: LC50 (the source's name)) was greater than 100 µM. For the same compound, the inhibition at 10 µM ([2]; Homo sapiens, SF-268, single dose 10 μM, read-out: growth inhibition (GI%)) was 34.4%, the TGI ([2]; SF-268, five-dose assay) was greater than 100 µM and the GI50 [3, 17] was 42.6 µM. The LC50 [3, 17] was greater than 100 µM, the inhibition at 10 µM ([3]; Homo sapiens, UACC-257, single dose 10 μM, read-out: growth inhibition (GI%)) was 26.5% and the TGI ([3]; UACC-257, five-dose assay) was greater than 100 µM. The GI50 ([4]; Homo sapiens, five-dose assay) was 10.1 µM, the CC50 [4, 18] was greater than 100 µM and the inhibition at 10 µM [4, 19] was 89.4%. The TGI ([4]; five-dose assay) was 40.00 µM, the GI50 ([5]; Homo sapiens, K562, K-562, five-dose assay) was 7.72 µM and the CC50 ([5]; Homo sapiens, K562, K-562, five-dose assay, read-out: LC50 (the source's name)) was greater than 100 µM. The inhibition at 10 µM ([5]; Homo sapiens, K-652 [sic], single dose 10 μM, read-out: growth inhibition (GI%)) was 31.4%, the TGI ([5]; K-562, five-dose assay) was 43.80 µM and the “β-tubulin mRNA levels (relative gene expression) vs non-treated cells” value [6] was “notably reduced; also recorded: significantly suppressed; also recorded: markedly reduced”. The GI50 ([7]; Homo sapiens, T47D, five-dose assay) was 12.2 µM, the CC50 ([7]; Homo sapiens, T47D, five-dose assay, read-out: LC50 (the source's name)) was greater than 100 µM and the inhibition at 10 µM ([7]; Homo sapiens, T47D, single dose 10 μM, read-out: growth inhibition (GI%)) was 91.6%. It also gave a TGI ([7]; five-dose assay) of 64.10 µM, a GI50 ([8]; Homo sapiens, UACC-62, five-dose assay) of 17.5 µM and a CC50 ([8]; Homo sapiens, UACC-62, five-dose assay, read-out: LC50 (the source's name)) greater than 100 µM. For the same compound, the inhibition at 10 µM ([8]; Homo sapiens, UACC-62, single dose 10 μM, read-out: growth inhibition (GI%)) was greater than 100%, the TGI ([8]; UACC-62, five-dose assay) was 60.10 µM and the “growth inhibition (GI%)” value ([8]; UACC-62, single dose 10 μM) was “lethal effect”. The TGI ([9]; BT-549, five-dose assay) was 28.10 µM, the GI50 [9, 20] was 4.11 µM and the LC50 [9, 20] was greater than 100 µM. The inhibition at 10 µM ([9]; Homo sapiens, BT-549, single dose 10 μM, read-out: growth inhibition (GI%)) was 57.5%, the GI50 ([10]; five-dose assay) was 5.7 µM and the LC50 ([10]; five-dose assay) was greater than 100 µM. It also gave a TGI ([10]; five-dose assay) greater than 100 µM, an inhibition at 10 µM ([10]; single dose 10 μM, read-out: growth inhibition (GI%)) of 77.3% and a GI50 ([11]; Homo sapiens, five-dose assay) of 44.9 µM. The CC50 [11, 18] was greater than 100 µM, the inhibition at 10 µM [11, 19] was 59.9% and the TGI ([11]; five-dose assay) was greater than 100 µM. It also gave a GI50 [12, 21] of 19.1 µM, an LC50 (concentration causing 50% net cell kill) [12, 21] greater than 100 µM and an inhibition at 10 µM ([12]; Homo sapiens, NCI-H522, single dose 10 μM, read-out: growth inhibition (GI%)) greater than 100%. For the same compound, the TGI ([12]; NCI-H522, five-dose assay) was greater than 100 µM, the “growth inhibition (GI%)” value ([12]; NCI-H522, single dose 10 μM) was “lethal effect” and the TGI ([13]; COLO 205, five-dose assay) was greater than 100 µM. The GI50 [13, 22] was 45.6 µM, the LC50 [13, 22] was greater than 100 µM and the inhibition at 10 µM ([13]; Homo sapiens, COLO 205, single dose 10 μM, read-out: growth inhibition (GI%)) was less than 10%. The TGI ([14]; HCT-15, five-dose assay) was greater than 100 µM, the GI50 [14, 23] was 27.6 µM and the LC50 (concentration causing 50% net cell kill) [14, 23] was greater than 100 µM. The inhibition at 10 µM ([14]; Homo sapiens, HCT-15, single dose 10 μM, read-out: growth inhibition (GI%)) was 35.8%, the GI50 [15, 24] was 19.4 µM and the LC50 [15, 24] was greater than 100 µM. For the same compound, the inhibition at 10 µM ([15]; Homo sapiens, SF-295, single dose 10 μM, read-out: growth inhibition (GI%)) was 96.4%, the TGI ([15]; SF-295, five-dose assay) was greater than 100 µM and the GI50 ([16]; Homo sapiens, OVCAR-8, five-dose assay) was 18.5 µM. It also gave a CC50 ([16]; Homo sapiens, OVCAR-8, five-dose assay, read-out: LC50 (the source's name)) greater than 100 µM, an inhibition at 10 µM ([16]; Homo sapiens, OVCAR-8, single dose 10 μM, read-out: growth inhibition (GI%)) of 92.1% and a TGI ([16]; OVCAR-8, five-dose assay) of 93.60 µM.
